Assay: gradient 5% acetonitrile 3 min, to 50% in 2 min, to 85% in 15 min, held 3 min, 100 µL/min
Conditions: column: Zorbax Extend-C18 2.1 x 50 mm; eluents: water / acetonitrile, 0.1% formic acid
How it was run: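 A Zorbax Extend-C18 column (2.1 × 50 mm, 1.8 μm) run at 100 μL/min with water and acetonitrile, both containing 0.1% formic acid, separated mixtures of ~100 pure standards. The HPLC was coupled to a quadrupole time-of-flight mass spectrometer operated in positive and negative ionization mode, with dead and dwell volumes of 40 μL and 900 μL. Each retention time was taken from a computationally picked adduct peak that was then manually inspected.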

Compound | RP-LC retention time [s]
O=C(C1CCCN(c2ncnc3c2nc2n3CCCCC2)C1)N1CCC(N2CCCCC2)CC1 (stereo unspecified) | 590
COCCC1CCN(C(=O)CN(C)C(=O)c2n[nH]c3ccccc23)CC1 | 661
COc1ccc(NC(=O)c2cc(C)n3nc(-c4ccsc4)cc3n2)cc1 | 1120
CCCc1nc(-c2c(C)cc(C)nc2NC(=O)c2ccc(C)cc2)no1 | 893
CC(C)NC(=O)c1ccnn1C | 604
COc1ccc(C(=O)Oc2ccc(/C=C/c3ccncc3)cc2OC)cc1OC | 606
CC(=O)Nc1ccc(N(Cc2nnc3n2CCCCC3)C(=O)Nc2cccc(Cl)c2)cc1 | 691
CC1(C)CCC=[N+]1[O-] | 487
COc1ccccc1NC(=O)c1c(O)c2cccnc2n(-c2cccc(F)c2)c1=O | 1210
Cc1ccc2nc(-c3cc(Br)ccc3F)c(Nc3ccc4c(c3)OCO4)n2c1 | 762
Nc1ccc(C(=O)Oc2ccc([N+](=O)[O-])cc2)cc1 | 926
CCOC(=O)C1CCCN(C(=O)CCC(=O)N2CCCn3nc(C)cc32)C1 (stereo unspecified) | 647
Cc1ccc(C(=O)Nc2cccn3nc(C(C)C)nc23)cc1C | 1030
O=C(NCc1cccnc1)c1nc2ccccn2c1-c1ccsc1 | 589
O=C(CC1COc2ccccc2NC1=O)NCCc1cccs1 (stereo unspecified) | 689
CCN1CCN(CCNC(=O)C2CCCN(C(=O)c3[nH]c(C)c(C(=O)OC)c3C)C2)CC1 (stereo unspecified) | 565
COc1ccc(C(=O)N2CCc3cc(-c4csc(C)n4)ccc32)c(OC)c1 | 965
C=CCNC(=O)c1cn(-c2ccc(-c3nc(C(C)C)no3)cn2)cn1 | 824
O=C(Nc1cccc(Cl)c1)Nc1nccn(-c2ccc3c(c2)CCC3)c1=O | 1170
COc1ccc(NC(=O)N2[C@H]3CC[C@@H]2c2cnc(-c4ccccc4)nc2C3)cc1OC | 838
COc1ccc2c(c1)c(CN1CCC(C(=O)NC3CCCCCC3)CC1)cn2C | 712
CCCNC(=O)c1ccc2c(c1)N(C)C(=O)CS2 | 843
CN(CCCNC(=O)C1CCCN(c2nnc(-n3cccc3)s2)C1)C1CCCCC1 (stereo unspecified) | 653

Compound | RP-LC retention time [s]
Cc1noc(-c2ccc(OC3CN(C(=O)NCCc4ccccc4)C3)cc2)n1 | 880
Cc1cc(C)c2c(-n3cccc3)nn(CC(=O)Nc3ccc(C(C)C)cc3)c2n1 | 1160
COc1ccc(N2CC(NC(=O)NCCC3=CCCCC3)CC2=O)cc1 (stereo unspecified) | 731
COC(=O)c1c(C)[nH]c(C(=O)N2CCC(CC(=O)NCCC3=CCCCC3)CC2)c1C | 787
CCCN(CCC)S(=O)(=O)c1ccc(Br)c(OC)c1 | 1060
CCNC(=O)N1CCCN(S(=O)(=O)C(C)C)CC1 | 614
Cc1nn(-c2nc3ccccc3[nH]2)c2c1C(=O)CC(c1cccs1)C2 (stereo unspecified) | 967
Cc1cccc(Nc2nc(-c3ccncc3)cs2)c1 | 734
Cc1nc(CCNC(=O)C2CCN(C(=O)c3ccc(F)cc3)CC2)cs1 | 826
CCOc1ccc(-c2noc(Cn3c(=O)n(C(C)C)c(=O)c4ccccc43)n2)cc1OC | 1080
CCOC(=O)C1CCN(Cc2nc(-c3ccc(N4CCCCC4)nc3)no2)CC1 | 664
COc1cccc(-c2cc3c(=O)n(Cc4nc(-c5cccc(Br)c5)no4)ccn3n2)c1 | 1080
CCCC(=O)N1CCC2(C1)C(=O)Nc1ccc(OC)cc12 (stereo unspecified) | 652
CCc1nccn1Cc1noc(-c2ccc(C)cc2)n1 | 648
COC(=O)c1ccccc1NC(=O)Cn1cnc2nc(-c3ccc(OC)cc3)ncc2c1=O | 925
CCc1ccc2occ(CC(=O)N(Cc3ccc(N(C)C)cc3)C3CCS(=O)(=O)C3)c2c1 (stereo unspecified) | 868
CC(C)CN1C(=O)c2cccn2CC1CNC(=O)c1cccs1 (stereo unspecified) | 715
COCCC1(NS(C)(=O)=O)CCN(C(=O)NCC(C)C)CC1 | 646
COc1ccc(NC(=O)c2cc(C(C)(C)C)n3nccc3n2)cc1OC | 1110
COc1ccc(CNC(=O)N2CCC(c3nc(C(=O)N4CCOCC4)c(C)o3)CC2)cc1 | 671
CCN1CCN(C(=O)C2CCN(c3nnc(-c4ccc(OC)cc4)o3)CC2)CC1 | 593
CCCn1c(=O)c(C)nc2cc(-c3noc(-c4cc(OC)c(OC)c(OC)c4)n3)ccc21 | 1110

Next, values leading:

RP-LC retention time [s] | Compound
883 | CCN1C(=O)COc2ccc(-c3nc(NC(=O)c4ccco4)sc3C)cc21
848 | Cc1nn2c(CNS(=O)(=O)c3cc(F)ccc3F)c(-c3ccccc3)nc2s1
1070 | COc1ccc(N2CCN(S(=O)(=O)c3cc(-c4nc(C)cs4)cs3)CC2)cc1
677 | CCOC(=O)N1CCC(NC(=O)CCc2cc3cc(C)ccc3[nH]c2=O)CC1
580 | Cc1ccccc1N1C(=O)CC(N2CCC(C(N)=O)CC2)C1=O (stereo unspecified)
614 | CN(CC1(C)CCOCC1)S(=O)(=O)c1cc(F)ccc1F
962 | Cc1cccc(OCc2nc(C)c(C(=O)N3CCC(C(N)=O)CC3)s2)c1
944 | CCc1ccc(NC(=O)C2CCN(S(C)(=O)=O)c3cc(Cl)ccc3O2)cc1 (stereo unspecified)
788 | O=C(c1cnccn1)N1CCCn2nc(-c3ccc(Cl)cc3)cc2C1
752 | COc1ccc(N2CCN(C(=O)CN3C(=O)NC(c4ccc(Cl)cc4)C4=C3COC4=O)CC2)cc1 (stereo unspecified)
819 | O=C(CN1C(=O)CCCc2cc(S(=O)(=O)N3CCCCC3)ccc21)N1CCCCC1
715 | Cc1cccc(-c2nc3ccccn3c2NC(=O)Nc2cc(F)ccc2F)c1
621 | O=C(CSc1nccn1Cc1ccc2c(c1)OCO2)Nc1ccccc1F
803 | CC1=C(c2ccccc2)S(=O)(=O)N=C1N1CCCN(C(=O)C(C)(C)C)CC1
677 | COCCN1C(=O)c2cccn2CC1CNS(=O)(=O)c1cccc2nsnc12 (stereo unspecified)
862 | CCOC(=O)c1cc2n(n1)CC(C)(C(=O)NC1CCCC1)N(c1cccc(F)c1)C2=O (stereo unspecified)
914 | O=C1C2N=NN(c3ccc(F)cc3)C2C(=O)N1c1ccccc1 (stereo unspecified)
1090 | CCN1C(=O)C2(CCN(S(=O)(=O)c3ccc(F)c(C)c3)CC2)c2ccccc21
691 | CS(=O)(=O)N1CCCCC1c1nncn1Cc1ccccc1 (stereo unspecified)
1190 | Cc1ccccc1NC(=O)C1CCCN(c2nc3ccccc3nc2C(F)(F)F)C1 (stereo unspecified)
816 | CCn1c(=O)c(C(=O)NCc2ccc(F)cc2F)nc2cccnc21
798 | CCc1ccc(S(=O)(=O)N2CCC3(CC2)NCCN=C3NCc2cc(F)cc(F)c2)cc1
740 | Cc1cccc2nnc(N3CCC(C(=O)NCc4ccc(C(F)(F)F)cc4)CC3)n12

RP-LC retention time [s] | Compound
625 | Cc1cc(Nc2cc(N3CCN(C)CC3)nc(/C=C/c3ccccc3)n2)n[nH]1
663 | CCc1ccccc1NC(=O)N1CCC(c2cc(=O)n3nccc3n2C)CC1
763 | CN(Cc1ccccc1)C(=O)c1ccc(CN2CCN(C3CCCC3)C(=O)C2=O)cc1
653 | Cn1cnc(S(=O)(=O)NCCC2CCN(C(=O)c3ccccc3)CC2)c1
787 | CCN(CC)C(=O)c1c(C)oc2ccn(Cc3ccc(F)cc3)c(=O)c12
817 | CCS(=O)(=O)c1ccc2c(c1)N(Cc1nc(-c3ccc(OC)c(OC)c3)no1)C(=O)CO2
1190 | CC1CCN(S(=O)(=O)c2ccc(-c3cc(C(F)(F)F)on3)o2)CC1
829 | CCOc1ccc2nc(NC(=O)C3CCN(S(=O)(=O)c4cn(C(C)C)cn4)CC3)sc2c1
915 | Cn1cc(CC(=O)N2CCN(c3ccccc3F)CC2)c2ccccc21
1070 | Cc1ccc(-c2ccc(S(=O)(=O)N3CCCC3)cc2)cc1
919 | COc1ccccc1-n1ccnc(NC(=O)Nc2cccc(F)c2)c1=O
681 | COc1ccc(N2CCN(c3nc4ccccc4cc3-c3noc(C)n3)CC2)cc1
880 | Cc1nc(-c2ccccc2F)sc1C(=O)N1CCCC1
727 | CCOc1ccccc1CN1C[C@@H]2C(=O)N(Cc3ccc4c(c3)OCO4)C(=O)[C@@H]2C1
704 | CN(C)C(=O)c1ccc2c(c1)N(CC(=O)Nc1ccc(F)cc1)C(=O)CS2
826 | CCN1c2cc(Cl)ccc2C(=O)NC12CCN(C(=O)Nc1ccc3c(c1)OCO3)CC2
671 | O=C(CCS(=O)(=O)c1ccccc1)NCc1ccsc1
565 | CCCn1c(C)cnc1C1CN(S(=O)(=O)c2ccccc2)C1
634 | CC1=C(C(=O)NCCN2CCOCC2)C2(CCN(Cc3ccccc3)CC2)OC1=O
647 | CC1Cc2ccccc2N1C(=O)Cc1csc(NC(=O)c2ccc(=O)[nH]c2)n1 (stereo unspecified)
725 | CCC(=O)N1CCCc2cc(NC(=O)c3ccco3)ccc21
918 | COc1ccc(Cn2nc3ccc(S(=O)(=O)N4CCCCC4)cn3c2=O)cc1F
796 | COc1cc(NC(=O)CSC2CCc3ccccc3NC2=O)cc(OC)c1 (stereo unspecified)

Reference: the METLIN SMRT retention time set (Domingo-Almenara et al. 2019)
